Literature values, collected in patent US20170348252A1, “Preparation and Use of Ketamine Derivatives and Ketamine Modifiers in the Treatment of Pain” (priority 2016, published 2017).

Settings: relative to thiopental; from Anirudda Pai et al. 2007

For `CNC1(c2ccccc2Cl)CCCCC1=O` (racemic) [Ketamine, 2-(2-chlorophenyl)-2-methylamino cyclohexanone], the lipid solubility is listed as 5-10 times that of thiopental.
